US20250295638A1, “METHODS OF TREATING ALLOGRAFT REJECTION” (Bargent Therapeutics Pty Ltd, priority 2022, published 2025)

Assays:
[1] = system: heparanase (HPSE) expression in peripheral blood lymphoid cells; assay: Heparanase expression (ddPCR, fractional abundance of cDNA) in peripheral blood lymphoid cells of kidney transplanted rats; type: in vivo, rat; details: day 6 after transplantation
Experimental: (§1) Left orthotopic renal transplants were performed with a mean anastomosis time of 37±4 minutes using a standard technique (11), which would be well known to the skilled person. The procured kidney was perfused with 2 ml Custodial HTK solution (Chemie GMBH, Alsbach-Hähnlein, Germany) at […]. Transplanted rats were given analgesia (Carprofen 5 mg/kg every 12-24 hours subcutaneously) and a prophylactic antibiotic (Enrofloxacin 5 mg/kg SC 12 hourly) for 3 days. The transplanted kidney and blood were procured on day 6 immediately after euthanasia by CO2 asphyxiation. The kidney and blood were used for measurements of gene expression in intragraft lymphoid cells and peripheral blood mononuclear cells.
(§2) Studies about gene expression of heparanase were performed on lymphoid cells from transplanted kidney tissue and peripheral blood on day 6 after transplantation. This time frame encompassed the period of maximum rejection at day 6.
Castanospermine was administered by Alzet osmotic pumps (Alza Corporation, Palo Alto, United States) at an immunosuppressive dose of 150 mg/kg per day. […]
RNA was manually extracted using the RNeasy Plus Mini Kit as per the manufacturer's instructions (Qiagen, Hilden, Germany). […] The quality of the RNA was measured using the Nanodrop 2000 (ThermoFisher Scientific, MA, USA) and quantified using the Qubit 2.0 Fluorometer (Invitrogen, MA, USA), RNA was stored at […]. […]
Custom ddPCR assays were designed using the IDT PrimerQuest™ Tool, Prime Time qPCR assay (IDT, Singapore). […] A 25 ul reaction containing, ddPCR SuperMix for Probes (No dUTP) (Bio-Rad, Hercules, CA, USA), a hypoxanthine-guanine phosphoribosyl transferase reference control (HPRT-1) and heparanase target probes (HPSE) (IDT, Singapore). cDNA and water were created for each sample and added to a 96 well plate ready for ddPCR droplet generation. […]
The samples were left on the cycler for a minimum of 4 hours at 4° C. The droplets were then read on the QX200 Droplet Reader and analysed using QuantaSoft Software (Bio-Rad, Hercules, CA, USA). […]

[2] = system: heart allograft (PVG donor, DA recipient); assay: Rat heterotopic cardiac transplantation: heart allograft survival; type: in vivo; details: for heart allograft survival times, mean / heart allograft survival times, median: PVG-DA allograft
Experimental: Inbred rat strains PVG (RT1c) (donor) and DA (RT1a) (recipient) used for heart and renal transplantation were housed under standard conditions. All procedures were approved and audited by an Animal Care and Ethics Committee in Australia.
Heterotopic cardiac transplants were done using a standard technique (10). Cardiac function was assessed daily by abdominal palpation. The end point of cardiac transplant survival was defined as the last day of palpable heart beating. Care of all rats in this study complied with the Animal Research Act 1985 (NSW, Australia). The protocols were designed to minimise pain and discomfort to the animals. Animals were acclimatised to laboratory conditions (22° C., 12 h cycle of light and dark, 50% humidity, ad libitum access to food and water) for a minimum of 1 wk. prior to experimentation. Intragastric gavage administration was carried out with conscious animals, using curved gavage needles appropriate for animal size (250-300 gm body weight: Gauge 16, 100 mm). All transplanted rats were given post-operative analgesia (Carprofen 4 mg/kg every 12-24 h subcutaneously). They were euthanized by approved carbon dioxide asphyxiation when the heart stopped beating prior to tissue procurement.
as §2
Castanospermine was administered by Alzet osmotic pumps (Alza Corporation, Palo Alto, United States) at an immunosuppressive dose of 150 mg/kg per day. OGT 2115 treatment started on the first post operative day and the Castanospermine treatment started on the day of the transplant.
An experiment was conducted comparing heart allograft survival in 6 groups of inbred rats.
These tests were assessed using the Wilcoxon rank sum test procedure. The mean, median, min, max and the first and third quartiles are presented for each group, as well as the estimated difference in location parameters with 95% confidence intervals. The difference in location parameters is the median of the difference between a sample from the first group and a sample from the second group.

[3] = system: ischaemia reperfusion injury; details: reference (2); cited from earlier work
[4] = system: pancreatic islet allografts; details: no IRI control, cited from earlier work
[5] = system: heparanase (HPSE) expression in kidney transplant lymphoid cells; assay: Heparanase expression (ddPCR, fractional abundance of cDNA) in lymphoid cells from kidney transplants; type: in vivo, rat; details: Cast 150 mg/kg minus Non-Treated; day 6 after transplantation
Experimental: RNA was manually extracted using the RNeasy Plus Mini Kit as per the manufacturer's instructions (Qiagen, Hilden, Germany). […] The quality of the RNA was measured using the Nanodrop 2000 (ThermoFisher Scientific, MA, USA) and quantified using the Qubit 2.0 Fluorometer (Invitrogen, MA, USA), RNA was stored at −800 C. […]

[6] = system: heparan sulphate in the renal allotransplant; assay: H-scores for heparan sulphate in the renal allotransplant by digital image pathology; type: in vivo, rat; details: for H-score for heparan sulphate, estimate of difference: day 6 after transplantation
Experimental: as §1
(§3) Groups used in this study are set out in Tables 6 and 7. Comparisons were made between an isograft control treatment group (i.e., a control for ischaemia reperfusion injury), a non-treated allograft group, and Castanospermine-treated allograft group. A primary comparison was made between the non-treated group versus the Castanospermine-treated group. […]
Whole slide digital images were acquired using an Aperio AT2 (Leica Biosystems, Wetzlar, Germany) at 20× magnification before analysis using the HALO v2.0 software (Indica laboratory, Corrales, New Mexico, USA). After selecting tissue areas, the percentage of total pixels with weak, moderate and strong staining intensity was measured using the ‘Area Quantification V1.0’ algorithm. Histology-score quantitation was calculated for each slide as H-score=(1×weak %)+(2×moderate %)+(3×strong %) providing a range from 0 to 300 (30). 4-6 sections per sample were scored at different levels through the tissue to obtain an average. […]
Three treatment Groups were studied at day 6 after transplantation. […] H Score quantitation is calculated for each slide as H-score=(1×weak %)+(2×moderate %)+(3×strong %) giving a score ranging from 0 to 300. There were 4-6 slides per kidney sample from one rat scored (each taken at different levels through the tissue) to obtain an average for that rat. […]

[7] = system: serum heparan sulphate; assay: ELISA assay for serum heparan sulphate after renal allotransplantation; type: in vivo, rat; details: combined days 2, 4, 6
Experimental: as §1, §3
Serum samples, separated from whole blood were aliquoted and stored at −80° C. […] Absorbance was immediately measured at 450 nm on a Versa Max Microplate Reader (Molecular Devices, Sunnyvale, California, USA) and the results calculated in ng/ml according to the internal standard curve. […]

[8] = Group 4: OGT 2115 2.5 mg/kg subcutaneously
[9] = Group 5: OGT 2115 5 mg/kg subcutaneously
[10] = Group 6: 10 mg/Kg, Wilcoxon difference in location
[11] = Group 6: OGT 2115 10 mg/kg subcutaneously
[12] = Castanospermine (150 mg/kg per day) v Isograft
[13] = Non-treated v Castanospermine (150 mg/kg per day)

O=C(O)Cc1ccc2oc(-c3ccc(NC(=O)/C=C/c4ccc(Br)cc4)c(F)c3)nc2c1 [OGT 2115]
Estimated mean difference in heparanase levels (percent heparanase cDNA), peripheral blood samples ([1]; OGT 2115 10 mg/kg minus Isograft): 17.0% | Estimated mean difference in heparanase levels (percent heparanase cDNA), peripheral blood samples ([1]; OGT 2115 10 mg/kg minus Non-Treated): 35.9% | survival of the heart allotransplant grafts (in words) ([2]; 2.5, 5 and 10 mg/Kg, Table 2 and FIG. 1): prolonged the survival | heart allograft survival times, mean [2, 8]: 7.40 days | heart allograft survival times, median [2, 8]: 8 days | heart allograft survival times, mean [2, 9]: 7.33 days | heart allograft survival times, median [2, 9]: 7 days | estimated increase in survival compared to DMSO [2, 10]: 3 days | estimated increase in survival compared to Non-treated PVG-DA [2, 10]: 2 days | heart allograft survival times, mean [2, 11]: 9.18 days | heart allograft survival times, median [2, 11]: 9 days

Roneparstat
ischaemia reperfusion injury (in words) [3]: curtail ischaemia reperfusion injury

PI 88
rejection of islet allografts (in words) ([4]; WO 2008/046162, example 8 and FIG. 10): curtails rejection of islet allografts | survivals of pancreatic islet allografts (in words) ([4]; WO 2011/109877, Example 7 and FIG. 15): prolonged

O[C@H]1[C@H](O)[C@@H](O)CN2CC[C@H](O)[C@H]12 [Castanospermine]
Estimated mean difference in heparanase levels (percent heparanase cDNA), peripheral blood samples ([1]; Cast 150 mg/kg minus Non-Treated): 22.1% | Estimated mean difference in heparanase levels (percent heparanase cDNA), kidney samples [5]: −31.0% | H-score for heparan sulphate, estimate of difference [6, 12]: −3.08 | H-score for heparan sulphate, estimate of difference [6, 13]: 34.78 | breakdown of HSPG (in words) ([6]; in both the allotransplant and the serum from allotransplanted rats, 150 mg/kg per day): effectively stops the breakdown of HSPG | serum heparan sulphate levels, ratio of estimate of difference [7, 12]: 1.05 | serum heparan sulphate levels, ratio of estimate of difference [7, 13]: 1.72
